Consider eleven molecules from ChEMBL document CHEMBL1201862, “PubChem BioAssay data set” (2004).

Among the test systems are A549; BT-549; CCRF-CEM; EKVX; HCT-116; IGROV-1; LOX IMVI; MDA-MB-435; NCI-H226; NCI-H460; RPMI-8226; SK-MEL-28; SNB-19; SNB-75; SR; T47D; U-251; UACC-257; UACC-62; MDA-N.
Common to all, as to experiment: inhibition of tumour cell growth, NCI panel, 48 h

Structures are written as SMILES.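 Results reflect a 48-hour exposure of cells in 96-well plates to compound at five concentrations. Here, GI50 denotes the concentration required for 50% inhibition of growth.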 Active and inactive are the calls of the source. Cut-off read from the data, not from the text of the source: active = GI50 up to about 1.1 µM and inactive = higher. A value given as a limit tells only on which side of the number the result lay.

For `Cc1cc2c(cc1Cl)SC(NS(=O)(=O)c1ccc(Cl)cc1)=NS2(=O)=O`, the GI50 was > 100 µM (inactive) with A549; 42.7 µM (inactive) with BT-549; 56.8 µM (inactive) in the assay with CCRF-CEM; 38.4 µM (inactive) in the assay on EKVX; 35.4 µM (inactive) with HCT-116; 89.5 µM (inactive) in the assay on IGROV-1. Moreover, the GI50 in the assay on LOX IMVI was 49.2 µM (inactive); in the assay on MDA-MB-435, 91.6 µM (inactive); in the assay with NCI-H226, 33.5 µM (inactive); in the assay on NCI-H460, 79.8 µM (inactive); in the assay on RPMI-8226, 57 µM (inactive); in the assay on SK-MEL-28 it was > 100 µM (inactive). Besides, the GI50 was 65.6 µM (inactive) in the assay on SNB-19; 35.2 µM (inactive) with SNB-75; 10.3 µM (inactive) in the assay on SR; > 100 µM (inactive) in the assay with T47D; > 100 µM (inactive) in the assay with U-251; 46.8 µM (inactive) in the assay with UACC-257. Moreover, the GI50 in the assay on UACC-62 was > 100 µM (inactive).
Consider `COCC([C@@H](O)C(O)C(=O)NCC[C@@H](C)c1nc(/C=C/CC2OC3(C[C@H](O)C2C)OC(C(C[C@H](O)C(C)[C@H](O)C(C)/C=C(C)/C(C)=C/C=C/C(C)=C/C#N)OC)[C@@H](OP(=O)(O)O)C3(C)C)co1)N(C)C` (some centres undefined), for which the GI50 is 0.0004 µM (active) in the assay on A549; 0.000167 µM (active) in the assay on BT-549; 0.000172 µM (active) in the assay on EKVX; 0.000177 µM (active) in the assay on HCT-116; 0.000161 µM (active) with IGROV-1; 0.000245 µM (active) with LOX IMVI. Besides, the GI50 was 0.000175 µM (active) in the assay on MDA-MB-435; 0.000191 µM (active) in the assay on MDA-N; 0.00015 µM (active) with NCI-H226; 0.000139 µM (active) with NCI-H460; 0.000272 µM (active) in the assay on RPMI-8226; 0.000184 µM (active) in the assay with SK-MEL-28. The GI50 in the assay with SNB-19 was 0.000195 µM (active); in the assay with SNB-75, 0.000182 µM (active); in the assay with T47D it was 0.000703 µM (active); in the assay with U-251, 0.000191 µM (active); with UACC-257, 0.00105 µM (active); with UACC-62, 0.000195 µM (active).
Turning to `CN1N=C(c2ccccc2)C(C(c2ccccc2[N+](=O)[O-])C2C(=O)N(C)N=C2c2ccccc2)C1=O` (centres undefined), the GI50 in the assay on A549 was > 100 µM (inactive); with BT-549, 63.4 µM (inactive); with CCRF-CEM, 26.8 µM (inactive); in the assay with EKVX it was > 100 µM (inactive); with HCT-116, > 78.7 µM (inactive); in the assay on IGROV-1, 25.1 µM (inactive). Moreover, the GI50 was 26.9 µM (inactive) in the assay with LOX IMVI; > 100 µM (inactive) with MDA-MB-435; > 100 µM (inactive) in the assay with MDA-N; > 51.1 µM (inactive) in the assay on NCI-H226; > 100 µM (inactive) in the assay on NCI-H460; 34.3 µM (inactive) in the assay with RPMI-8226. The GI50 in the assay on SK-MEL-28 was > 100 µM (inactive); in the assay with SNB-19, > 100 µM (inactive); in the assay with SNB-75, > 87.1 µM (inactive); with T47D it was > 100 µM (inactive); with U-251, > 100 µM (inactive); in the assay on UACC-257, > 71.4 µM (inactive). Moreover, the GI50 with UACC-62 was 61.2 µM (inactive).
Consider `[O-][n+]1cc(SCc2ccccc2)ncc1SCc1ccccc1`, for which the GI50 in the assay on A549 was > 10 µM (inactive); with BT-549 it was 0.811 µM (active); in the assay with CCRF-CEM, > 10 µM (inactive); in the assay with EKVX it was > 10 µM (inactive); with HCT-116 it was > 10 µM (inactive); in the assay with IGROV-1 it was > 10 µM (inactive). The GI50 in the assay on LOX IMVI, in the assay on MDA-MB-435, in the assay with NCI-H226, in the assay on NCI-H460, in the assay with RPMI-8226 and in the assay with SK-MEL-28 was > 10 µM (inactive) in each case. Besides, the GI50 with SNB-75, in the assay on SR, with T47D, in the assay on U-251, with UACC-257 and with UACC-62 was > 10 µM (inactive) each time.
As to `COc1ccccc1/C=C/c1cnccn1`, the GI50 in the assay on A549, in the assay with BT-549, with CCRF-CEM, with EKVX, in the assay with HCT-116 and in the assay with IGROV-1 was > 10 µM (inactive) each time. Moreover, the GI50 in the assay on LOX IMVI, with MDA-MB-435, with MDA-N, in the assay with NCI-H226, in the assay with NCI-H460 and with RPMI-8226 was > 10 µM (inactive) each time. Further, the GI50 in the assay with SK-MEL-28, in the assay with SNB-19, in the assay on SNB-75, in the assay on T47D, in the assay on U-251 and in the assay on UACC-257 was > 10 µM (inactive) throughout. Besides, the GI50 in the assay with UACC-62 is > 10 µM (inactive).
Take `COC(=O)[C@H](Cc1c[nH]c2ccccc12)NP(=O)(O)OCC1C=CC(n2cc(C)c(=O)[nH]c2=O)O1` (some centres undefined): the GI50 with BT-549, in the assay on CCRF-CEM, in the assay with EKVX, with HCT-116, with IGROV-1 and in the assay on LOX IMVI was > 100 µM (inactive) throughout. In addition, the GI50 with MDA-MB-435, with MDA-N, in the assay on NCI-H226, in the assay with RPMI-8226, in the assay on SK-MEL-28 and in the assay on SNB-19 was > 100 µM (inactive) throughout. Besides, the GI50 in the assay with SNB-75, in the assay with T47D, in the assay on U-251 and with UACC-62 was > 100 µM (inactive) in each case.
As for `COc1ccc(/C=C2\CCC(C)(CN(C)C)C2=O)cc1Br` (centres undefined), the GI50 was 38.4 µM (inactive) in the assay on A549; 16 µM (inactive) in the assay on BT-549; 37.5 µM (inactive) in the assay with CCRF-CEM; 10.2 µM (inactive) in the assay with EKVX; 17.2 µM (inactive) with HCT-116; 16.2 µM (inactive) in the assay with IGROV-1. Also, the GI50 was 18.2 µM (inactive) with LOX IMVI; 24.5 µM (inactive) with MDA-MB-435; 19.1 µM (inactive) in the assay on MDA-N; 18.9 µM (inactive) in the assay with NCI-H226; 26.7 µM (inactive) with NCI-H460; 19.1 µM (inactive) in the assay with RPMI-8226. The GI50 with SK-MEL-28 was 22.9 µM (inactive); with SNB-19 it was 23 µM (inactive); in the assay with SNB-75 it was 25.6 µM (inactive); in the assay on SR, 19.1 µM (inactive); with U-251, 21.8 µM (inactive); with UACC-257, 19.5 µM (inactive). The GI50 in the assay on UACC-62 was 4.03 µM (inactive).
`O=C(COc1ccc(Cl)cc1Cl)N/N=C/C=C/c1ccc([N+](=O)[O-])o1`: the GI50 in the assay with A549 is 8.24 µM (inactive); in the assay with BT-549, 12.1 µM (inactive); in the assay with CCRF-CEM it was 3.13 µM (inactive); in the assay on EKVX, 17.5 µM (inactive); in the assay on HCT-116 it was 1.87 µM (inactive); in the assay on IGROV-1, 1.42 µM (inactive). Further, the GI50 in the assay on LOX IMVI is 3.27 µM (inactive); in the assay with MDA-MB-435, 2.63 µM (inactive); in the assay on MDA-N it was 3.43 µM (inactive); in the assay on NCI-H226, 10.5 µM (inactive); in the assay with NCI-H460, 8.39 µM (inactive); in the assay on RPMI-8226, 2.26 µM (inactive). Moreover, the GI50 was 4.08 µM (inactive) in the assay with SK-MEL-28; 9.48 µM (inactive) in the assay with SNB-19; 14.3 µM (inactive) with SNB-75; > 100 µM (inactive) with T47D; 15.7 µM (inactive) with U-251; 3.82 µM (inactive) in the assay on UACC-62.
In the case of `COC(=O)[C@H](Cc1c[nH]c2ccccc12)NP(=O)(OCCC#N)OCC1OC(n2cc(C)c(=O)[nH]c2=O)CC1N=[N+]=[N-]` (some centres undefined), the GI50 in the assay on A549, with BT-549, in the assay with CCRF-CEM, with EKVX, in the assay on HCT-116 and in the assay on IGROV-1 was > 100 µM (inactive) each time. The GI50 in the assay with LOX IMVI, with MDA-MB-435, with MDA-N, in the assay on NCI-H226, in the assay on NCI-H460 and in the assay with RPMI-8226 was > 100 µM (inactive) each time. The GI50 with SNB-19, with SNB-75, in the assay on T47D, in the assay on U-251, with UACC-257 and with UACC-62 was > 100 µM (inactive) throughout.
`COC1CCN(N(C)C)O1` (centres undefined): the GI50 with A549, with BT-549, in the assay on CCRF-CEM, in the assay on EKVX, with HCT-116 and with IGROV-1 was > 100 µM (inactive) throughout. The GI50 in the assay with LOX IMVI, in the assay on MDA-MB-435, in the assay on NCI-H226, in the assay with NCI-H460, with RPMI-8226 and with SK-MEL-28 was > 100 µM (inactive) in each case. The GI50 in the assay with SNB-19, in the assay with SNB-75, in the assay with SR, with T47D, in the assay on U-251 and with UACC-257 was > 100 µM (inactive) each time. For the same molecule, the GI50 in the assay with UACC-62 is > 100 µM (inactive).
With `O=C(CC(=O)Nc1ccccc1)N/N=C/c1cc(/N=N/c2ccc(Br)cc2)ccc1O`, the GI50 in the assay on A549 was > 10 µM (inactive); in the assay with BT-549, > 10 µM (inactive); in the assay on CCRF-CEM, 1.54 µM (inactive); in the assay with EKVX, 3.97 µM (inactive); with IGROV-1 it was 4.21 µM (inactive); in the assay on LOX IMVI, 4.28 µM (inactive). Moreover, the GI50 in the assay on MDA-N is 3.72 µM (inactive); in the assay on NCI-H460 it was 3.28 µM (inactive); in the assay on RPMI-8226, 3.68 µM (inactive); in the assay with SK-MEL-28, 4.41 µM (inactive); in the assay on SNB-75 it was > 10 µM (inactive); in the assay on SR, 1.39 µM (inactive). For the same molecule, the GI50 in the assay on T47D is 4.38 µM (inactive); in the assay on U-251 it was 3.61 µM (inactive); with UACC-257, 2.08 µM (inactive); in the assay with UACC-62, 2.28 µM (inactive).
